# In patent publication US6333406A, “Gene encoding protein antigens of Plasmodium falciparum and uses therefor” (priority 1994, dated 2001):
# “And” between values parts separate entries of the source, which are not always exact repeats. Identical values can stand only once.
# B1: SE50A: recombinant portion of the 50 kd processed SERA protein, SEQ ID NO: 17, produced in E. coli as inclusion body (protein)
# chain: MKDENNCISNLQVEDQGNCDTSWIFASKYHLETIRCMKGYEPTKISALYVANCYKGEHKDRCDEGSSPMEFLQIIEDYGFLPAESNYPYNYVKVGEQCPKVEDHWMNLWDNGKILHNKNEPNSLDGKGYTAYESERFHDNMDAFVKIIKTEVMNKGSVIAYIKAENVMGYEFSGKKVQNLCGDDTADHAVNIVGYGNYVNSEGEKKSYWIVRNSWGPYWGDEGYFKVDMYGPTHCHIEF
# Key:
# [1] = test system: DHFR^Thr108 (reconstructed P. falciparum DHFR); conditions: Dixon plots for DHFR^Thr108 and DHFR^Ser108 (FIGS. 19A-19F)
# Source text: (§1) The decrease in A340 was monitored by a HITACHI spectrophotometer U-2000. The blank sample consisted of all the reaction components except the enzyme.
# [2] = biological target: T1, DHFR^Ser108 (reconstructed P. falciparum DHFR) (Plasmodium falciparum, UniProt P13922, N108S/R59C); experiment: Inhibition of recombinant DHFR activity, spectrophotometric assay with Dixon plot analysis; type: biochemical
# T1 construct: The gene encoding DHFR part of the P. falciparum DHFR-TS complex; made in house; host or cells: E. coli JM103, plasmid pET-PfDHFR^Ser108 (pET-3a), induced with M13-pKM2
# Source text: as §1
# [3] = biological target: SE50A recombinant SERA protein produced in E. coli (Plasmodium falciparum); experiment: ELISA of control rat serum
# [4] = biological target: SE47' recombinant SERA protein produced in E. coli (Plasmodium falciparum); experiment: ELISA of control mouse serum
# [5] = test system: NC(=O)C1=CN([C@@H]2O[C@H](COP(=O)(O)OP(=O)(O)OC[C@H]3O[C@@H](n4cnc5c(N)ncnc54)[C@H](OP(=O)(O)O)[C@@H]3O)[C@@H](O)[C@H]2O)C=CC1; experiment: purified protein, by the assay type; conditions: other: substrate Km, reconstructed P.f. DHFR Thr108 (Table IV); pH 7.6; 37.0 °C
# [6] = test system: SE50A; experiment: ELISA value of rat sera immunized with recombinant SERA protein SE50A; type: in vivo; conditions: individual rats 1-3; subcutaneous, insoluble form without adjuvant, days 1, 22, 50
# Source text: The SE50A protein was produced in E. coli cells as described for SE47'. The products were obtained as an inclusion body in the precipitate of lysed cells. The precipitate was solubilized with a buffer containing 5M guanidine HCl. After removal of insoluble materials, SE50A protein was precipitated by removing the 5M guanidine HCl again. These processes were repeated 3 times. The final precipitate contained SE50A at more than 80% purity. Three rats were immunized by subcutaneous injection of the insoluble form of SE50A without adjuvant three times on days 1, 22, and 50.
# [7] = test system: Plasmodium falciparum (FCR3); experiment: Plasmodium falciparum growth inhibition with anti-SERA serum; type: cell-based; conditions: FCR3 culture, serum dilutions, parasitemia after 72 hours (FIGS. 16A-16B)
# Description: FIGS. 16A and 16B show Plasmodium falciparum growth inhibition with anti-SER47' and anti-SE50A serum. […] The inhibition confirms that the new constructs of SERA (FIG. 10, FIG. 11, and FIG. 12) produce immunogenic material and that adjuvant enhances the induction of parasite inhibitory levels of antibodies.
# The Plasmodium falciparum cell (FCR3) was grown in an in vitro culture containing 5% red blood cells (RBC). When the parasitized RBC, 96% were trophozoite and schizont, reached 4.4% of total RBC, the culture was diluted to 1% of parasitized cell in total RBC and 2% of RBC in medium. The 100 µl of the diluted culture was incubated in a 96 well dish. The culture media which contains rat or mouse serum at the indicated dilution were changed each 24 hours. Parasitemia was measured by Giemsa staining after 72 hours incubation. The sera used here were from the animal #3 of SE47' and #1 of SE50A, each of whose ELISA titer was described in Table VI.
# [8] = test system: SERA protein; experiment: Immunoblot of whole cellular proteins of Plasmodium falciparum FCR3 strain with antiserum against SE47' or SE50A; type: binding; conditions: mouse anti-SE47' serum, rat anti-SE50A serum
# Description: The antisera used for the immunoblot were as follows: lane 1, control mouse serum; lane 2, mouse anti-SF47' serum; lane 3, control rat serum; lane 4, rat anti-SE50A serum. The arrow indicates the molecular weight corresponding to SERA protein.
# Parasite cells were isolated by saponin lysis of the in vitro culture. The prepared cells were analyzed by immunoblotting using SDS-polyacrylamide gel electrophoresis (12.5%). The antisera used for the immunoblot (FIG. 15) were as follows: lane 1, control mouse serum; lane 2, mouse #3 anti-SE47' serum; lane 3, control rat serum; lane 4, rat #1 anti-SE50A serum. The arrow indicates the molecular weight corresponding to SERA protein.
# [9] = substrate Km of DHFR^Ser108, as stated in text
# [10] = substrate Km, reconstructed P.f. DHFR Ser108 (Table IV)
molecule,measurement,setting,value
CN(Cc1cnc2nc(N)nc(N)c2n1)c1ccc(C(=O)N[C@@H](CCC(=O)O)C(=O)O)cc1 [methotrexate],manner of enzyme inhibition,[1],competitive
Nc1nc2c(c(=O)[nH]1)N=C(CNc1ccc(C(=O)N[C@@H](CCC(=O)O)C(=O)O)cc1)CN2 [DHF],Km,[2]; [9],67 µM
same,Km,[2]; [10],66.6 ± 2.6 µM
control rat serum (polyclonal serum or antibody),ELISA Titer,[3],< 50
control mouse serum (polyclonal serum or antibody),ELISA Titer,[4],< 200
CCc1nc(N)nc(N)c1-c1ccc(Cl)cc1 [pyrimethamine],manner of enzyme inhibition,[1],competitive
DHFR^Thr108 (reconstructed P. falciparum DHFR) (Plasmodium falciparum K1; N108T/R59C),Km,[5],19.2 ± 0.4 µM
NC(=O)C1=CN([C@@H]2O[C@H](COP(=O)(O)OP(=O)(O)OC[C@H]3O[C@@H](n4cnc5c(N)ncnc54)[C@H](OP(=O)(O)O)[C@@H]3O)[C@@H](O)[C@H]2O)C=CC1 [NADPH],Km,[2]; [9],90 µM
same,Km,[2]; [10],90.2 ± 4.3 µM
B1,ELISA Titer,[6],"10,000 and 8,330"
same,parasite growth inhibition by antiserum raised against the protein,[7],indistinguishable from control serum except at the lowest dilution
same,recognition of SERA protein by antiserum in immunoblot,[8],recognize the complete SERA protein
